The record followed here is patent US10189862B2, “Phenothiazine-pyridine compounds and uses thereof” (The Chinese University of Hong Kong, priority 2016, dated 2019).

Data set [1] in a line: UV-Visible and fluorescence spectrometry. The format is physicochemical. Conditions: for λmax(nm)in EtOH: UV-Vis absorption maximum in EtOH; for Log ε: UV-Vis in EtOH; for λEm (nm): fluorescence emission, excited at 610 nm. As for the experimental part:
(§1) All of the new prepared phenothiazine-pyridine compounds are deep blue solid, the basic physiochemical properties are measured by UV-Visible and fluorescence spectrometry. […] The maximum absorption is about 650 nm in ethanol, and they are varied based on the compound structure. The fluorescence emission is about 680 nm when excited at 610 nm. All of these compounds have relatively high quantum yield, they are promising diagnostic and imaging agents. The lipophilicity is determined by the partition coefficient (log P), which can be obtained by measuring the UV-Vis absorption of the compound in phosphate buffer saline (PBS) before and after the partition equilibrium between n-octanol and PBS solution, and then calculated following the equation of: Log p=Log [(Abefore/Aafter)−1]. Wherein Abefore and Aafter are the absorption values in PBS solution before and after partition.

Data set [2] can be described thus: Partition coefficient (log P) between n-octanol and PBS by UV-Vis absorption. Format: physicochemical. As for the experimental part: as §1
Data set [3] deals with normal fibroblast WI38 cells. Description: Dark toxicity, MTT assay. Format: cell-based. The settings on record: Homo sapiens, WI-38, 24 h, read-out: IC50 dark toxicity. As for the experimental part: (§2) Cell lines and culture conditions: A549, HT29, MCF-7, MDA-MB-231 cell lines were maintained in RPMI1640 supplemented with fetal bovine serum (10%) and penicillin-streptomycin solution (1%), and WI38 cells were maintained in DMEM supplemented with fetal bovine serum (10%) and penicillin-streptomycin solution (1%). Approximately 1×10^4 (for A549, HT29, MCF-7, MDA-MB-231) or 1.5×10^4 (for WI38) cells per well were seeded in 96-well plate and incubated overnight light at 37° C. in a humidified atmosphere with 5% CO2.
(§3) Dark toxicity: Cells were incubated with different concentrations of photosensitive drug for 24 h in dark, and the cell viabilities were determined by MTT assay
The IC50 values (50% inhibitory concentration) of the prepared phenothiazine-pyridine compounds 8, 14, 15, 16, 17, 18, 19, 20, 21, 22, 23, and 24 to normal fibroblast cell line WI38 were measured by MTT assay.

Data set [4] concerns A549 cell line. The data set is described as follows: Photocytotoxicity (PDT), MTT assay. The format is cell-based. The settings on record: Homo sapiens, A549, light or radiation study, read-out: IC50 PDT. As for the experimental part: as §2
(§4) Photocytotoxicity: Cells were incubated with different concentrations of photosensitive drug for 1 h in the dark, then the medium in the well was sucked by a syringe, and washed by PBS. Then a solution of new medium was added, and illuminated by light. After irradiation, the cells were incubated under dark at 37° C. for another 24 h, and the cell viabilities were determined by MTT assay.

The subject of data set [5] is HT29 cell line. Description: Photocytotoxicity (PDT), MTT assay. Format: cell-based. Conditions: Homo sapiens, HT-29, light or radiation study, read-out: IC50 PDT. Here is the method: as §2, §4
Data set [6] relates to MCF7 cell line. Description: Photocytotoxicity (PDT), MTT assay. The format is cell-based. Conditions: Homo sapiens, MCF7, light or radiation study, read-out: IC50 PDT. Here is the method: as §2, §4
In data set [7] the test system is A549 cell line. Description: Dark toxicity, MTT assay. Format: cell-based. Conditions: Homo sapiens, A549, 24 h, read-out: IC50 DK. Here is the method:
as §2, §3

The test system of data set [8] is HT29 cell line. Description: Dark toxicity, MTT assay. The format is cell-based. The settings on record: Homo sapiens, HT-29, 24 h, read-out: IC50 DK. As for the experimental part: as §2, §3
For data set [9], the system named is MCF7 cell line. Description: Dark toxicity, MTT assay. Conditions: Homo sapiens, MCF7, 24 h, read-out: IC50 DK. Format: cell-based. As for the experimental part: as §2, §3
For the next data set, the system named is S. aureus. The data set is described as follows: Dark toxicity of photosensitizers on bacteria, CFU count. Format: cell-based, Staphylococcus aureus. Conditions: absence of light, 6 h. As for the experimental part:
(§5) Bacterial growth and culture: Gram-positive S. aureus or Gram-negative E. coli were grown on trypticase soy agar (TSA) for 24 h, then a colony was transferred into tryptica soy broth (TSB) and grown at 37° C. overnight at a 200 rpm speeds of shaking-up using a shaker incubator. The nutrient medium was centrifuged for 5 min at 8000 rpm and diluted by sterile 0.85% saline (pH 7.5) to concentrations of 10^8 CFU/ml, which was used for further incubation with photosensitizers in the following experiments.
(§6) Dark toxicities of the photosensitizers on bacteria: Bacterial suspensions were incubated with photosensitizers at various concentrations at 37° C. in the dark for 6 h. After that, 100 uL of cell suspension were spread on the TSA in 10-fold serial dilutions. Colony forming unit (CFU) was counted after incubation for 24 h at 37° C.

The next data set concerns E. coli. The data set is described as above. Conditions: absence of light, 6 h. Format: cell-based, Escherichia coli. Here is the method:
as §5, §6

As for `CCCCCNc1cc2[s+]c3cc(N(CC)CC)ccc3nc2c2ccc(C)nc12` [Compound 15, 9-(diethylamino)-3-methyl-5-(pentylamino)pyrido[3,2-a]phenothiazin-7-ium chloride], in data set [1], the “λmax(nm)in EtOH” value was determined as 651 nm, the “Log ε” value stood at 4.91 and the “λEm (nm)” value is 684 nm. The logP in [2] is 1.4. The 50% inhibitory concentration (IC50) in [3] was over 10000 nM.

With `CCN(CC)c1ccc2nc3c(cc(NCCCNC)c4nc(C)ccc43)[s+]c2c1` [Compound 22, 9-(diethylamino)-3-methyl-5-(3-(methylamino)propylamino) pyrido[3,2-a]phenothiazin-7-ium chloride], in data set [1], the “λmax(nm)in EtOH” value turned out to be 658 nm. Also, the “Log ε” value in [1] is listed as 4.81. In addition, the “λEm (nm)” value in data set [1] is 686 nm. The same compound came in with a logP in data set [2] of 0.65. Further, the IC50 in data set [3] is over 10000 nM; with A549 cell line [4], 11900 nM; in the data set on HT29 cell line [5], 510 nM; with MCF7 cell line [6] it was 3100 nM; in the data set on A549 cell line [7], 19800 nM; with HT29 cell line [8], 9500 nM. Also, the half-maximal inhibitory concentration (IC50) in the data set with MCF7 cell line [9] came out at 13200 nM.

On to `CCCN(CCC)c1cc2[s+]c3cc(N(CC)CC)ccc3nc2c2ccc(C)nc12` [Compound 19, 9-(diethylamino)-5-(dipropylamino)-3-methylpyrido[3,2-a]phenothiazin-7-ium chloride], for which, in [1], the “λmax(nm)in EtOH” value is 675 nm, the “Log ε” value stood at 4.67 and the “λEm (nm)” value came to 684 nm. In data set [2], this compound came in with a log partition coefficient (logP) of 1.42. The IC50 in data set [3] was 9400 nM.

`CCCCN(CCCC)c1ccc2nc3c(cc(NCCC)c4nc(C)ccc43)[s+]c2c1` [Compound 24, 9-(dibutylamino)-3-methyl-5-(propylamino)pyrido[3,2-a]phenothiazin-7-ium chloride]: the “λmax(nm)in EtOH” value in [1] was determined as 654 nm. Besides, the “Log ε” value in [1] turned out to be 4.86. Besides, the “λEm (nm)” value in data set [1] is 688 nm. For the same compound, the logP in [2] stood at 3.4. Besides, the IC50 in [3] was over 10000 nM; in the data set on A549 cell line [4], 100 nM; with HT29 cell line [5] it was 74 nM; with MCF7 cell line [6], 77 nM; in the data set with A549 cell line [7] it was 850 nM; in the data set with HT29 cell line [8], 840 nM. For the same compound, the IC50 in the data set with MCF7 cell line [9] came to 850 nM. Also, the dark toxicity result with S. aureus and in the data set with E. coli was “essentially non-toxic” in each case.

For `CCN(CC)c1ccc2nc3c(cc(NCCCN)c4nc(C)ccc43)[s+]c2c1` [Compound 21, 5-(3-aminopropylamino)-9-(diethylamino)-3-methylpyrido[3,2-a]phenothiazin-7-ium chloride], in [1], the “λmax(nm)in EtOH” value was 668 nm, the “Log ε” value stood at 4.82 and the “λEm (nm)” value stood at 686 nm. The log partition coefficient (logP) in [2] was 0.64. The IC50 in data set [3] is over 10000 nM.

`CCN(CC)c1ccc2nc3c(cc(N)c4nc(C)ccc43)[s+]c2c1` [Compound 8, 5-amino-9-(diethylamino)-3-methylpyrido[3,2-a]phenothiazin-7-ium chloride]: the “λmax(nm)in EtOH” value in data set [1] is recorded as 658 nm. In data set [1], the “Log ε” value was determined as 4.93. Moreover, in [1], the “λEm (nm)” value came out at 680 nm. The compound further displayed a logP in data set [2] of 0.97. Moreover, the IC50 in data set [3] was over 10000 nM; in the data set on A549 cell line [4], 1800 nM; in the data set with HT29 cell line [5], 210 nM; with MCF7 cell line [6], 500 nM; with A549 cell line [7] it was 6500 nM; in the data set on HT29 cell line [8], 4600 nM. In the data set with MCF7 cell line [9], the IC50 amounted to 1100 nM. Also, the dark toxicity result with S. aureus and with E. coli was “essentially non-toxic” throughout.

Take `CCCCCCCNc1cc2[s+]c3cc(N(CC)CC)ccc3nc2c2ccc(C)nc12` [Compound 16, 9-(diethylamino)-5-(heptylamino)-3-methylpyrido[3,2-a]phenothiazin-7-ium chloride]: in [1], the “λmax(nm)in EtOH” value stood at 651 nm, the “Log ε” value is on record as 4.89 and the “λEm (nm)” value was 684 nm. Moreover, in data set [2], the logP was determined as 1.44. Further, in data set [3], the concentration for half-maximal inhibition (IC50) is over 10000 nM.

On to `CCCCCCCCCCNc1cc2[s+]c3cc(N(CC)CC)ccc3nc2c2ccc(C)nc12` [Compound 17, 5-(decylamino)-9-(diethylamino)-3-methylpyrido[3,2-a]phenothiazin-7-ium chloride], for which, in data set [1], the “λmax(nm)in EtOH” value turned out to be 651 nm, the “Log ε” value was determined as 4.89 and the “λEm (nm)” value was 684 nm. The logP in data set [2] is 2.49. Besides, the IC50 in data set [3] amounted to 7000 nM.

With `CCCNc1c(I)c2[s+]c3cc(N(CC)CC)ccc3nc2c2ccc(C)nc12` [Compound 23, 9-(diethylamino)-6-iodo-3-methyl-5-(propylamino)pyrido[3,2-a]phenothiazin-7-ium chloride], the “λmax(nm)in EtOH” value in data set [1] is recorded as 633 nm. Also, the “Log ε” value in data set [1] stood at 4.87. For the same compound, the “λEm (nm)” value in [1] came to 666 nm. In data set [2], this compound showed a logP of 1.48. Moreover, the concentration for half-maximal inhibition (IC50) in data set [3] stood at 5200 nM; with A549 cell line [4], 680 nM; in the data set with HT29 cell line [5], 71 nM; in the data set on MCF7 cell line [6] it was 120 nM; with A549 cell line [7], 3300 nM; in the data set with HT29 cell line [8], 2000 nM. For the same compound, in the data set on MCF7 cell line [9], the half-maximal inhibitory concentration (IC50) is 900 nM. Moreover, the dark toxicity result in the data set on S. aureus and in the data set with E. coli was “essentially non-toxic” throughout.

Turning to `CCN(CC)c1ccc2nc3c(cc(NC)c4nc(C)ccc43)[s+]c2c1` [Compound 18, 9-(diethylamino)-3-methyl-5-(methylamino)pyrido[3,2-a]phenothiazin-7-ium chloride], in [1], the “λmax(nm)in EtOH” value came out at 649 nm, the “Log ε” value was found to be 4.70 and the “λEm (nm)” value came to 683 nm. In addition, in [2], the logP came to 1.31. The IC50 in data set [3] came to 5000 nM.

On to `CCCCCN(CCCCC)c1cc2[s+]c3cc(N(CC)CC)ccc3nc2c2ccc(C)nc12` [Compound 20, 9-(diethylamino)-5-(dipentylamino)-3-methylpyrido[3,2-a]phenothiazin-7-ium chloride], for which, in data set [1], the “λmax(nm)in EtOH” value was 676 nm, the “Log ε” value is on record as 4.89 and the “λEm (nm)” value stood at 700 nm. The logP in data set [2] was determined as 1.48. Besides, the IC50 in data set [3] is over 10000 nM.
